The values that follow come from patent US8440724B2, “Inhibiting neurotransmitter reuptake” (Mayo Foundation for Medical Education and Research, priority 2008, dated 2013).

Series [1] concerns the target T1, human serotonin transporter (hSERT) (Homo sapiens, UniProt P31645).
T1 construct: expressed in transfected cells; host or cells: HEK-293, stably transfected
Nature of the series: Radioligand binding to cloned hSERT, [3H]citalopram, HEK-293 cell membranes. As to conditions: for Binding at hSERT compared to PRC200-SS: in words.

Series [2] concerns the target T2, human norepinephrine transporter (hNET) (Homo sapiens, UniProt P23975).
T2 construct: expressed in transfected cells; host or cells: HEK-293, stably transfected
Nature of the series: Radioligand binding to cloned hNET, [3H]nisoxetine, HEK-293 cell membranes.

Series [3] deals with T3, rat serotonin transporter, synaptosomal preparations (Rattus norvegicus, UniProt P31652).
T3 construct: from tissue; host or cells: rat frontal cortex synaptosomes (male Sprague-Dawley)
Description: Inhibition of [3H]5-HT reuptake in rat brain synaptosomes (frontal cortex). The class given is biochemical. As for the experimental part: (§1) The dissected tissues were separately homogenized in 20 volumes (cortical) or 40 volumes (striatal) of ice-cold, oxygenated HEPES buffer 0.32 M sucrose containing 11 mM glucose (pH 7.4) in a glass Potter-Elvehjem homogenizer with Teflon® pestle (8 strokes, 900 rpm). The homogenates were centrifuged at 1,000×g for 10 minutes. The resulting supernatant was decanted and further centrifuged at 20,000×g for 20 minutes at 4° C. […] The synaptosomal protein concentration was determined by using the BCA assay (Pierce Biotechnology Inc, Rockford, Ill.), according to the manufacturer's instructions. Synaptosomal protein (1.0-2.5 mg) was suspended in 1 mL oxygenated incubation buffer as defined above. Test amine compound was pre-incubated with the synaptosomal preparation for 30 minutes at 37° C. in a shaking water bath (80 oscillations/minute).

In series [4] the target is T4, rat norepinephrine transport, synaptosomal preparations (Rattus norvegicus, UniProt Q63380).
T4 construct: from tissue; host or cells: rat occipital cortex synaptosomes (male Sprague-Dawley)
Description: Inhibition of [3H]NE reuptake in rat brain synaptosomes (occipital cortex). The class given is biochemical. The method, then: as §1

For series [5], the target named is T5, rat dopamine transporter, synaptosomal preparations (Rattus norvegicus, UniProt P23977).
T5 construct: and striatal tissues for transport of dopamine; from tissue; host or cells: rat striatum synaptosomes (male Sprague-Dawley)
Nature of the series: Inhibition of [3H]DA reuptake in rat brain synaptosomes (striatum). The class given is biochemical. As for the experimental part: as §1

A further series concerns the target hERG (Homo sapiens, UniProt Q12809). Nature of the series: hERG assay: block of rubidium ion (Rb+) efflux from cells expressing hERG. As to conditions: for Blocking of hERG channel compared with PRC200-SS: in words. As for the experimental part: Human “ether-a-go-go” (hERG) is an ion channel. Blockade of this channel can be predictive of causing cardiac arrhythmias in humans. hERG assays were performed to measure the ability of a compound to block rubidium ion (Rb^+) efflux from cells expressing hERG. Cells were pre-loaded with Rb^+, incubated with test compound, and then exposed to a buffer that opens the channel and allows the efflux of ions. Compounds as powder were dissolved in 100% DMSO to prepare 100 mM stock solutions. […] The stocks were stored at 23° C.
The range of doses for the test compounds was 30 nM through 100,000 nM.

Setting [6] is: Geometric Mean ± SEM, HCl salts, read-out: Equilibrium Dissociation Constant (KD) for Transporter Binding, hSERT (S).
Where [7] appears, read: Geometric Mean ± SEM, HCl salts, read-out: Equilibrium Dissociation Constant (KD) for Transporter Binding, hNET (N).
Where [8] appears, read: Geometric Mean ± SEM, rat brain synaptosomes, read-out: Inhibitor Constant (Ki), 5HT transport.
[9] abbreviates: Geometric Mean ± SEM, rat brain synaptosomes, read-out: Inhibitor Constant (Ki), NE transport.
Setting [10] is: Geometric Mean ± SEM, rat brain synaptosomes, read-out: Inhibitor Constant (Ki), DA transport.

Like-named read-outs stand apart in the source and are kept apart here.

T5 sequence (P23977 whole entry): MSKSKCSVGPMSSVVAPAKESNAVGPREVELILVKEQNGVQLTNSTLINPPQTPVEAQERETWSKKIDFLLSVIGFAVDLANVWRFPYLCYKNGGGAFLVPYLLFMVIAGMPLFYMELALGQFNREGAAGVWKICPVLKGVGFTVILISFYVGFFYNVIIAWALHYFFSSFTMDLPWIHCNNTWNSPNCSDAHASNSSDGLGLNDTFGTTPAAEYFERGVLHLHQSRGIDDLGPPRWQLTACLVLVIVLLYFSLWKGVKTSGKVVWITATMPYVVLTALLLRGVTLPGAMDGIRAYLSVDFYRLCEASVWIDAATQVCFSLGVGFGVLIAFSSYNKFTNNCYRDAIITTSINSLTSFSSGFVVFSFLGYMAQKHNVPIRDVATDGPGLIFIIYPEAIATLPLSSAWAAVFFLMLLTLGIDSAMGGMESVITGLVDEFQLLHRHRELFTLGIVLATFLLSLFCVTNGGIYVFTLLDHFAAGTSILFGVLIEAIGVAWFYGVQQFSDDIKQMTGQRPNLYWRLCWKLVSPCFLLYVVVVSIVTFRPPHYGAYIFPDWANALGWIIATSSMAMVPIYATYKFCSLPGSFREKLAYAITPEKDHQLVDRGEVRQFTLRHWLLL
T2 sequence (P23975 whole entry): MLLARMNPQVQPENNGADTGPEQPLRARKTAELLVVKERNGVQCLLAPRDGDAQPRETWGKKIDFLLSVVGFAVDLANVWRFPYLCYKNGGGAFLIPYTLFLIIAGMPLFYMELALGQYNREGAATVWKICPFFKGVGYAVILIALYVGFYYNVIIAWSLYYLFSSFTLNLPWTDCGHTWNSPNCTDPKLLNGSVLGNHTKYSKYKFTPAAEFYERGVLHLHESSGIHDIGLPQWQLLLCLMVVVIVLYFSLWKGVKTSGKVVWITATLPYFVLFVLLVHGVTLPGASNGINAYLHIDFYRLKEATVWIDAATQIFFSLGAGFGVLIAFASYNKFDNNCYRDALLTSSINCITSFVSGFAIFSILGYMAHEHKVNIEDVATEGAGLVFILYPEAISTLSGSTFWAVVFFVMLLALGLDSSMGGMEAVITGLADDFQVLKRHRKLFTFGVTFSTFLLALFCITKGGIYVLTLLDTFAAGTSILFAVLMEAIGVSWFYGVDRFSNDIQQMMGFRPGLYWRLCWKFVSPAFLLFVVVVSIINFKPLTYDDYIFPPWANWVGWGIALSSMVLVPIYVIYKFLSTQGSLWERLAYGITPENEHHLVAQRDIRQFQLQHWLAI
T4 sequence (Q63380 1-617): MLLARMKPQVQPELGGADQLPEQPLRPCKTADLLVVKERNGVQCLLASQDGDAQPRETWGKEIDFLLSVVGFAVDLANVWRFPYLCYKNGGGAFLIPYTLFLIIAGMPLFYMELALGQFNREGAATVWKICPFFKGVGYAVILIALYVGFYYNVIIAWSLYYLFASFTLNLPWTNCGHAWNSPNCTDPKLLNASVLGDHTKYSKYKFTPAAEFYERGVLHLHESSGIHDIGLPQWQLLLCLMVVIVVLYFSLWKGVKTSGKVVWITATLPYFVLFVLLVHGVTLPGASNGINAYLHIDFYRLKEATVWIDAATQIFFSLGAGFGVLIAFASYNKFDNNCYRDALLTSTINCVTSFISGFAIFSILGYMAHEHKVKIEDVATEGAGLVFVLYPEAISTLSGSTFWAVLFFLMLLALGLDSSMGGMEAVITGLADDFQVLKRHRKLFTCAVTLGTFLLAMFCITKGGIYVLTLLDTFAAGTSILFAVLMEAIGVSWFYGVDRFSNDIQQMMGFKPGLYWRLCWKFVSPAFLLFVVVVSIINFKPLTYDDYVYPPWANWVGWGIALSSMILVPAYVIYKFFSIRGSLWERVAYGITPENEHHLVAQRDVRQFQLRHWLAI
T1 sequence (P31645 whole entry): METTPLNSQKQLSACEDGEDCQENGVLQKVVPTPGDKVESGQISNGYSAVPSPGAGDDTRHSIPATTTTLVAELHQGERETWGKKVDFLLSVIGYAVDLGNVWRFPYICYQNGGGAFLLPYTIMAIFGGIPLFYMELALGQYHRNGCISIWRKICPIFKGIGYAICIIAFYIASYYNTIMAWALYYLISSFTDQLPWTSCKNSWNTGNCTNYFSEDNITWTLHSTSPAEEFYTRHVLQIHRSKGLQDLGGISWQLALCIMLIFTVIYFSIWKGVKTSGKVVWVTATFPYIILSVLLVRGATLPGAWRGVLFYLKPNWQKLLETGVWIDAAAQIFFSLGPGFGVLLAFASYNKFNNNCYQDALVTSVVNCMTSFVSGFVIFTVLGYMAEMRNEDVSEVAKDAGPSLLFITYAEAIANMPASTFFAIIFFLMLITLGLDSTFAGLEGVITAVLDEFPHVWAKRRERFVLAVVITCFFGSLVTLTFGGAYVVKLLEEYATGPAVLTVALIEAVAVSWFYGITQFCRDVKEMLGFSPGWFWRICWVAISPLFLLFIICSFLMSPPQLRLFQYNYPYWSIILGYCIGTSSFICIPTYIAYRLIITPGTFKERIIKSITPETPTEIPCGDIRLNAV
hERG, sequence (Q12809 whole entry): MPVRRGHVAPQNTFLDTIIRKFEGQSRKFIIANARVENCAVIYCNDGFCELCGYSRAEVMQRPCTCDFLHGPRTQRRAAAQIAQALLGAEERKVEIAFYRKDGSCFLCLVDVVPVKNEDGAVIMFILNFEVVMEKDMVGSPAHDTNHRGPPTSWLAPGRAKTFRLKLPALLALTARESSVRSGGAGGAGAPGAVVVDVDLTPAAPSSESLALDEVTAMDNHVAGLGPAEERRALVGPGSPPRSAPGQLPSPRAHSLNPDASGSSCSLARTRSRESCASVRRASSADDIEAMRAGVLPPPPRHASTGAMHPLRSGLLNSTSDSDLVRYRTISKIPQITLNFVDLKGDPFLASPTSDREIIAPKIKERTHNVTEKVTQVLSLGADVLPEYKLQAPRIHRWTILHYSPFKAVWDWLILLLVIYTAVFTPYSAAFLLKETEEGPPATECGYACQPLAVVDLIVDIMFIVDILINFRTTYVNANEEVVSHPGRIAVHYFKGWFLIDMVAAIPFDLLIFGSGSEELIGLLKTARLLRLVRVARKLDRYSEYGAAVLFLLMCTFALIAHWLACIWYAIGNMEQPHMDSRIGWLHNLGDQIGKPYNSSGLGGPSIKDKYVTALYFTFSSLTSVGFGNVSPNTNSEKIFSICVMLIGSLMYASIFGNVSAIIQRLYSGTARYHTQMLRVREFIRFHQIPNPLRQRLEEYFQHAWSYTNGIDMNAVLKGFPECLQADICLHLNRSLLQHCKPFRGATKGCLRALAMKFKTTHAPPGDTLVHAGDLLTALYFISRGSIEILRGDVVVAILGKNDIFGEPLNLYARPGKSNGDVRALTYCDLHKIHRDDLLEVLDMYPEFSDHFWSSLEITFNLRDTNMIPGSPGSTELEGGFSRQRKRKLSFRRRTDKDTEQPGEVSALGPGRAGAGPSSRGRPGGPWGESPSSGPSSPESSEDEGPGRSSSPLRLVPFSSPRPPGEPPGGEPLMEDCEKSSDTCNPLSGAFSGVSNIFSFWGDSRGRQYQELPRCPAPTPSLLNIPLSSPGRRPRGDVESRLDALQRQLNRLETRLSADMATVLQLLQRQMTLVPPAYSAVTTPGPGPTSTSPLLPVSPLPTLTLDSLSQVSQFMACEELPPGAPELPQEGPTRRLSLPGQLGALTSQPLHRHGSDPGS
T3 sequence (P31652 whole entry): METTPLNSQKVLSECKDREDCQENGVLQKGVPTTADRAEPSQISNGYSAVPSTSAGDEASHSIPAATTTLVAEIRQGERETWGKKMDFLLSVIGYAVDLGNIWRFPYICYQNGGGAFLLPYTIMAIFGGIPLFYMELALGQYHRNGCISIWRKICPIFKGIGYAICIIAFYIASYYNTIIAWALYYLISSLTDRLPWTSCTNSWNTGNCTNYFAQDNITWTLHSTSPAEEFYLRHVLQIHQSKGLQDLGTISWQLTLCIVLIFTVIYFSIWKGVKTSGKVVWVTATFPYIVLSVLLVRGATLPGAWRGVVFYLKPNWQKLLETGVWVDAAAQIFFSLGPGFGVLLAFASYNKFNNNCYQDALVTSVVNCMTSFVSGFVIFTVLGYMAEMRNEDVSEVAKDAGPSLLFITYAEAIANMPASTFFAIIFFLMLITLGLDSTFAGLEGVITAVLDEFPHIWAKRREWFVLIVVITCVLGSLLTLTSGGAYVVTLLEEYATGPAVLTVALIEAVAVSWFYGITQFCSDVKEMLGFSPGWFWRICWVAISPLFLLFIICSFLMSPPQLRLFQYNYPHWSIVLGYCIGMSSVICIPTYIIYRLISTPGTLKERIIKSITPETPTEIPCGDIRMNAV

Regarding `CNC[C@H](c1ccc2ccccc2c1)[C@H](OCCCCCO[C@H](c1ccccc1)[C@H](CNC)c1ccc2ccccc2c1)c1ccccc1` [MCJ001-Dimer5-SS, (2S,2′S,3S,3′S)-3,3′-(pentane-1,5-diylbis(oxy))bis(N-methyl-2-(naphthalen-2-yl)-3-phenylpropan-1-amine)], the results for the Kd in series [1] (setting [6]) and in series [2] (setting [7]) were 140 ± 30 nM and 160 ± 30 nM, respectively. Moreover, the results for the Ki in series [3] (setting [8]), in series [4] (setting [9]) and in series [5] (setting [10]) were 150 ± 10 nM, 200 ± 30 nM and 800 ± 300 nM, respectively.

For the molecule `CNC[C@@H](c1ccc2ccccc2c1)[C@H](F)c1ccccc1` [MCJ001-F-SR, (2R,3S)-3-fluoro-N-methyl-2-(naphthalen-2-yl)-3-phenylpropan-1-amine], the Kd in series [1] turned out to be 130 ± 20 nM; in series [2] it was 430 ± 70 nM. In addition, in series [1], the “Binding at hSERT compared to PRC200-SS” value is “much more weakly at hNET and hSERT”. Further, the “Binding at hNET compared to PRC200-SS” value in series [2] (in words) was “much more weakly at hNET and hSERT”. On hERG, the IC50 was 94000 nM. Further, the “Blocking of hERG channel compared with PRC200-SS” value at hERG is “weaker than PRC200-SS at blocking this channel”. The Ki in series [3] was 53 ± 12 nM; in series [4] (setting [9]), 110 ± 20 nM; in series [5] (setting [10]), 130 ± 20 nM.

Consider `CNC[C@H](c1ccc2ccccc2c1)[C@H](OC)c1ccccc1` [MCJ001-OMe-SS, (2S,3S)-3-methoxy-N-methyl-2-(naphthalen-2-yl)-3-phenylpropan-1-amine], for which the dissociation constant Kd is 13 ± 2 nM in series [1] (setting [6]) and 1.4 ± 0.2 nM in series [2] (setting [7]). Also, the figures for the Ki in series [3] (setting [8]), in series [4] (setting [9]) and in series [5] (setting [10]) were 12.8 ± 0.9 nM, 24 ± 2 nM and 46 ± 5 nM, respectively.

Regarding `CNC[C@@H](c1ccc2ccccc2c1)[C@H](N=[N+]=[N-])c1ccccc1` [MCJ001-N3-SR, (2R,3S)-3-azido-N-methyl-2-(naphthalen-2-yl)-3-phenylpropan-1-amine], the Kd in series [1] (setting [6]) was determined as 380 ± 40 nM; in series [2] (setting [7]) it was 700 ± 100 nM. In addition, the Ki in series [3] (setting [8]) was found to be 640 ± 50 nM; in series [4] (setting [9]), 250 ± 20 nM; in series [5] (setting [10]), 2000 ± 300 nM.

Consider `CNC[C@H](c1ccc2ccccc2c1)[C@@H](N=[N+]=[N-])c1ccccc1` [MCJ001-N3-RS, (2S,3R)-3-azido-N-methyl-2-(naphthalen-2-yl)-3-phenylpropan-1-amine], for which the Kd in series [1] (setting [6]) was found to be 124 ± 9 nM; in series [2] (setting [7]), 64 ± 7 nM. On hERG, this molecule came in with a concentration for half-maximal inhibition (IC50) of 39200 nM. In addition, the Ki in series [3] (setting [8]) is 88 ± 10 nM; in series [4] (setting [9]) it was 56 ± 3 nM; in series [5] (setting [10]), 270 ± 50 nM.

Consider `CN(C)C[C@H](c1ccc2ccccc2c1)[C@H](N)c1ccccc1` [MCJ002-NH2-SS, (2S,3S)-N1,N1-dimethyl-2-(naphthalen-2-yl)-3-phenylpropane-1,3-diamine], for which the Kd in series [1] (setting [6]) was found to be 2.4 ± 0.3 nM; in series [2] (setting [7]), 12.6 ± 0.9 nM. The “Binding at hSERT compared to PRC200-SS” value in series [1] is listed as “greater binding at hSERT”. Also, in series [2] (when the compound occupies 95% of hSERT binding sites, calculation based on occupancy theory), the “Occupancy of hNET binding sites” value was 79%. Besides, 67900 nM corresponded to half-maximal inhibition on hERG (IC50).

With `CNC[C@H](c1ccc2ccccc2c1)[C@@H](F)c1ccccc1` [MCJ001-F-RS, (2S,3R)-3-fluoro-N-methyl-2-(naphthalen-2-yl)-3-phenylpropan-1-amine], the Kd stood at 2.8 ± 0.3 nM in series [1] and 0.9 ± 0.1 nM in series [2]. In addition, the “Binding at hSERT compared to PRC200-SS” value in series [1] is “greater binding at hSERT”. On hERG, this molecule came in with an IC50 of 92400 nM. In addition, on hERG, the “Blocking of hERG channel compared with PRC200-SS” value is reported as “weaker than PRC200-SS at blocking this channel”. For the same molecule, the Ki in series [3] stood at 9 ± 1.5 nM; in series [4], 9 ± 1 nM; in series [5], 58 ± 6 nM.

With `CNCC(c1ccc2ccccc2c1)C(F)c1ccccc1` (racemic) [MCJ001-F-(±)-RR, (2R,3R/2S,3S)-3-fluoro-N-methyl-2-(naphthalen-2-yl)-3-phenylpropan-1-amine], the equilibrium dissociation constant (Kd) in series [1] came to 3.9 ± 0.1 nM; in series [2], 4.5 ± 0.8 nM. Further, the “Binding at hSERT compared to PRC200-SS” value in series [1] is listed as “greater binding at hSERT”. The Ki stood at 90 ± 7 nM in series [3], 47 ± 5 nM in series [4] and 250 ± 9 nM in series [5] (setting [10]).
